Data taken from patent publication US20170022171A1, “2,5-DISUBSTITUTED CYCLOPENTANECARBOXYLIC ACIDS AND THEIR USE” (Bayer Pharma Aktiengesellschaft, priority 2014, published 2017).

Columns and labels:
Assay type in all cases: biochemical
MMP-8 = biological target: T1, MMP-8 (Homo sapiens, UniProt P22894); assay: In vitro MMP-8 inhibition test
T1 construct: purchased R&D Systems 908-MP
Text: (§1) The MMP-mediated amidolytic cleavage of a suitable peptide substrate leads to an increase in fluorescent light here too. The signal intensity of the fluorescent light is directly proportional to the enzyme activity. The active concentration of a test compound at which half the enzyme is inhibited (50% signal intensity of the fluorescent light) is reported as the IC50 value.
(§2) Recombinant MMP-8 (from R&D Systems, 908-MP) is chemically activated in accordance with the manufacturer's instructions using APMA. 1 μl of the test compound to be analysed (as a solution in DMSO, suitable concentrations, for example, 1 nM to 30 μM) is pipetted into 24 μl of activated enzyme (final concentration, for example, 0.5 nM) in reaction buffer (50 mM Tris/HCl pH 7.5, 10 mM CaCl2, 150 mM NaCl, 0.05% Brij®-35) in a white 384-hole microtiter plate (MTP). The enzymatic reaction is started by adding the intramolecularly quenched Mca-Pro-Leu-Gly-Leu-Dpa(Dnp)-Ala-Arg-NH2 substrate (final concentration, for example, 10 μM; R&D Systems, ES-001), so as to result in a total test volume of 50 μl. The course of the MMP-8 reaction is measured by measuring the fluorescence intensity (excitation 320 nm, emission 410 nm) over a suitable period of time (for example over 120 min at a temperature of 32° C.).

MMP-9 = biological target: T2, MMP-9 (Homo sapiens, UniProt P14780); assay: In vitro MMP-9 inhibition test
T2 construct: purchased R&D Systems 911-MP
T2 sequence (P14780 107-707 limits assumed): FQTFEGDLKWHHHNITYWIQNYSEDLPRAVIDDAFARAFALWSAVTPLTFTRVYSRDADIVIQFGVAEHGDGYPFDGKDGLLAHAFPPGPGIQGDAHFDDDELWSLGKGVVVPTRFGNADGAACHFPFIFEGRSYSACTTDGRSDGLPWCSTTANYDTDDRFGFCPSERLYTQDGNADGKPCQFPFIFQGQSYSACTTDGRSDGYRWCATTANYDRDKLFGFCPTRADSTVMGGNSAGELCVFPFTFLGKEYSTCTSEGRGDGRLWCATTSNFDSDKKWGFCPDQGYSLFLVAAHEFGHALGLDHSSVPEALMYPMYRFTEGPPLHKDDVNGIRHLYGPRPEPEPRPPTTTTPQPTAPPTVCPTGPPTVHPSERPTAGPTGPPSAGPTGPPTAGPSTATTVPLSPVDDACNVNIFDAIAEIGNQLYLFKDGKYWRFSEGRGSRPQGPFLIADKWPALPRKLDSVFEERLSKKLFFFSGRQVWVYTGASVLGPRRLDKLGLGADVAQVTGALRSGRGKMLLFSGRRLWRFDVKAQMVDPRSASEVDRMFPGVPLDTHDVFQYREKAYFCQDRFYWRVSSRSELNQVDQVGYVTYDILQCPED
Text: as §1
as §2, with “MMP-9” for “MMP-8”, “911-MP)” for “908-MP)”, “0.1” for “0.5”

MMP-14 = biological target: T3, MMP-14 (Homo sapiens, UniProt P50281); assay: In vitro MMP-14 inhibition test
T3 construct: purchased R&D Systems 918-MP
Text: as §1
Recombinant MMP-14 (from R&D Systems, 918-MP) is enzymatically activated in accordance with the manufacturer's instructions using recombinant furin (from R&D Systems, 1503-SE). 1 μl of the test compound to be analysed (as a solution in DMSO, suitable concentrations e.g. 1 nM to 30 μM) is pipetted into 24 μl of activated enzyme (final concentration e.g. 0.5 nM) in reaction buffer (50 mM Tris/HCl pH 7.5, 10 mM CaCl2, 150 mM NaCl, 0.05% Brij®-35) in a white 384-hole microtiter plate (MTP). The enzymatic reaction is started by adding the intramolecularly quenched Mca-Lys-Pro-Leu-Gly-Leu-Dpa(Dnp)-Ala-Arg-NH2 substrate (final concentration, for example, 5 μM; R&D Systems, ES-010), so as to result in a total test volume of 50 The course of the MMP-14 reaction is measured by measuring the fluorescence intensity (excitation 320 nm, emission 410 nm) over a suitable period of time (for example over 120 min at a temperature of 32° C.).

MMP-7 = biological target: T4, MMP-7 (Homo sapiens, UniProt P09237); assay: In vitro MMP-7 inhibition test
T4 construct: purchased R&D Systems 907-MP
T4 sequence (P09237 95-267): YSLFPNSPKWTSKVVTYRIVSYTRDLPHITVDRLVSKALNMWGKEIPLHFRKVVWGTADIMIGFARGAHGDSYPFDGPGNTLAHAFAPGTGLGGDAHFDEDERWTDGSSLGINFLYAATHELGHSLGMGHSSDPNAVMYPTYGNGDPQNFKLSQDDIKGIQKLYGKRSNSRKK
Text: as §1
as §2, with “MMP-7” for “MMP-8”, “907-MP)” for “908-MP)”, “[…]” for “50 μl.”

T1 sequence (P22894 101-467): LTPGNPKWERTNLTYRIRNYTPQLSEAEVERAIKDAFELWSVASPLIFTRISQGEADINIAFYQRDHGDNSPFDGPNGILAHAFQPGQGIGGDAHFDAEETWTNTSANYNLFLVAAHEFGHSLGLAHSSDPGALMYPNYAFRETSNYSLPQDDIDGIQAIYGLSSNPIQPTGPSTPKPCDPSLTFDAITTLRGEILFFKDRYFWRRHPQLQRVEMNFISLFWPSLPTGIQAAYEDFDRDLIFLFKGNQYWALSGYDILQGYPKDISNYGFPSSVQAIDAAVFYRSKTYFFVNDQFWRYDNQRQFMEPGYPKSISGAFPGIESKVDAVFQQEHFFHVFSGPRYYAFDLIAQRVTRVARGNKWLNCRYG

IC50 (MMP-8) [µM]	IC50 (MMP-9) [µM]	IC50 (MMP-14) [µM]	IC50 (MMP-7) [µM]	Structure (SMILES)
0.065	0.44	0.32	0.19	Cc1cccc(COc2ccc(C(=O)[C@@H]3CC[C@H](Cn4nnc5ccc(C(F)(F)F)cc5c4=O)[C@H]3C(=O)O)cc2)c1 (single isomer, unassigned) [Example 16, (+)-(1RS,2RS,5SR)-2-{4-[(3-Methylbenzyl)oxy]benzoyl}-5-{[4-oxo-6-(trifluoromethyl)-1,2,3-benzotriazin-3(4H)-yl]methyl}cyclopentanecarboxylic acid]
0.13	1	3	1.6	O=C(O)[C@@H]1[C@@H](Cn2nnc3ccc(C(F)(F)F)cc3c2=O)CC[C@H]1C(=O)c1ccc(OCc2cccc(C(F)(F)F)c2)cc1 (single isomer, unassigned) [Example 19, (+)-(1RS,2SR,5RS)-2-{[4-Oxo-6-(trifluoromethyl)-1,2,3-benzotriazin-3(4H)-yl]methyl}-5-(4-{[3-(trifluoromethyl)benzyl]oxy}benzoyl)cyclopentanecarboxylic acid]
0.056	0.27	1.2	0.5	O=C(O)[C@@H]1[C@@H](Cn2nnc3ccc(C(F)(F)F)cc3c2=O)CC[C@H]1C(=O)c1ccc(OCc2cccc(Cl)c2)cc1 (single isomer, unassigned) [Example 23, (+)-(1RS,2RS,5SR)-2-{4-[(3-Chlorobenzyl)oxy]benzoyl}-5-{[4-oxo-6-(trifluoromethyl)-1,2,3-benzotriazin-3(4H)-yl]methyl}cyclopentanecarboxylic acid]
0.00079	0.003	0.23	0.12	O=C(O)[C@@H]1[C@@H](Cn2nnc3ccc(C(F)(F)F)cc3c2=O)CC[C@H]1C(=O)c1ccc(OCc2ccc(Cl)cc2)cc1 (single isomer, unassigned) [Example 25, (+)-(1RS,2RS,5SR)-2-{4-[(4-Chlorobenzyl)oxy]benzoyl}-5-{[4-oxo-6-(trifluoromethyl)-1,2,3-benzotriazin-3(4H)-yl]methyl}cyclopentanecarboxylic acid]
0.002	1.4	0.17	0.031	O=C(O)[C@@H]1[C@@H](Cn2nnc3ccc(C(F)(F)F)cc3c2=O)CC[C@H]1C(=O)c1ccc(OCc2cccc(N3CCOC3=O)c2)cc1 (single isomer, unassigned) [Example 35, (+)-(1RS,2RS,5SR)-2-(4-{[3-(2-Oxo-1,3-oxazolidin-3-yl)benzyl]oxy}benzoyl)-5-{[4-oxo-6-(trifluoromethyl)-1,2,3-benzotriazin-3(4H)-yl]methyl}cyclopentanecarboxylic acid]
0.0016	0.051	0.11	0.068	O=C(O)[C@@H]1[C@@H](Cn2nnc3ccc(C(F)(F)F)cc3c2=O)CC[C@H]1C(=O)c1ccc(OCC2CCCCC2)cc1 (single isomer, unassigned) [Example 41, (+)-(1RS,2RS,5SR)-2-[4-(Cyclohexylmethoxy)benzoyl]-5-{[4-oxo-6-(trifluoromethyl)-1,2,3-benzotriazin-3(4H)-yl]methyl}cyclopentanecarboxylic acid]
0.0011	0.052	0.088	0.14	O=C(O)[C@@H]1[C@@H](Cn2nnc3ccc(C(F)(F)F)cc3c2=O)CC[C@H]1C(=O)c1ccc(OCC2CCCC2)cc1 (single isomer, unassigned) [Example 44, (+)-(1RS,2RS,5SR)-2-[4-(Cyclopentylmethoxy)benzoyl]-5-{[4-oxo-6-(trifluoromethyl)-1,2,3-benzotriazin-3(4H)-yl]methyl}cyclopentanecarboxylic acid]
0.038	0.83	3.6	0.34	O=C(O)[C@@H]1[C@@H](Cn2nnc3ccc(C(F)(F)F)cc3c2=O)CC[C@H]1C(=O)c1ccc(OCCC2CCCCC2)cc1 (single isomer, unassigned) [Example 52, (+)-(1RS,2RS,5SR)-2-[4-(2-Cyclohexylethoxy)benzoyl]-5-{[4-oxo-6-(trifluoromethyl)-1,2,3-benzotriazin-3(4H)-yl]methyl}cyclopentanecarboxylic acid]
0.03	0.94	2.4	0.26	O=C(O)[C@@H]1[C@@H](Cn2nnc3ccc(C(F)(F)F)cc3c2=O)CC[C@H]1C(=O)c1ccc(OCCC2CCCC2)cc1 (single isomer, unassigned) [Example 55, (+)-(1RS,2RS,5SR)-2-[4-(2-Cyclopentylethoxy)benzoyl]-5-{[4-oxo-6-(trifluoromethyl)-1,2,3-benzotriazin-3(4H)-yl]methyl}cyclopentanecarboxylic acid]
0.016	0.083	1.3	0.18	CCCCCCOc1ccc(C(=O)[C@@H]2CC[C@H](Cn3nnc4ccc(C(F)(F)F)cc4c3=O)[C@H]2C(=O)O)cc1 (single isomer, unassigned) [Example 58, (+)-(1RS,2RS,5SR)-2-[4-(Hexyloxy)benzoyl]-5-{[4-oxo-6-(trifluoromethyl)-1,2,3-benzotriazin-3(4H)-yl]methyl}cyclopentanecarboxylic acid]
0.074	0.47	1.9	0.34	O=C(O)[C@@H]1[C@@H](Cn2nnc3ccc(C(F)(F)F)cc3c2=O)CC[C@H]1C(=O)c1ccc(SCc2ccccc2)cc1 (single isomer, unassigned) [Example 75, (+)-(1RS,2RS,5SR)-2-[4-(Benzylsulphanyl)benzoyl]-5-{[4-oxo-6-(trifluoromethyl)-1,2,3-benzotriazin-3(4H)-yl]methyl}cyclopentanecarboxylic acid]

Structure (SMILES)	IC50 (MMP-8) [µM]	IC50 (MMP-9) [µM]	IC50 (MMP-14) [µM]	IC50 (MMP-7) [µM]
CCCCOc1ccc(C(=O)[C@@H]2CC[C@H](Cn3nnc4ccc(C(F)(F)F)cc4c3=O)[C@H]2C(=O)O)cc1 (single isomer, unassigned) [Example 67, (+)-(1RS,2RS,5SR)-2-(4-Butoxybenzoyl)-5-{[4-oxo-6-(trifluoromethyl)-1,2,3-benzotriazin-3(4H)-yl]methyl}cyclopentanecarboxylic acid]	0.0016	0.061	0.096	0.12
